The values that follow come from patent US20110112103A1, “5-HYDROXYPYRIMIDINE-4-CARBOXAMIDE COMPOUND” (DAIICHI SANKYO COMPANY, LIMITED, priority 2008, published 2011).

Data set [1] concerns human liver cancer-derived cell line Hep3B. The experiment in a line: in vitro erythropoietin (EPO) induction activity in Hep3B cells, EPO ELISA of culture supernatant. The data set is classed as cell-based. As to conditions: test compound 12.5 μM, 24 hours at 37° C., multiple against EPO concentration in control (0.5% DMSO). As for the experimental part: The in vitro erythropoietin (EPO) induction activity of test compounds was evaluated using human liver cancer-derived cell line Hep3B (ATCC, Manassas, Va.). Hep3B cells were cultured overnight at 37° C. in Dulbecco's Modified Eagle's Medium (DMEM) in the presence of 10% fetal bovine serum (FBS) (24-well plate, 1.0×10^5 cells/well). After replacing with fresh DMEM (+10% FBS) containing a test compound dissolved in 0.5% dimethyl sulfoxide (DMSO) (prepared to a concentration of 12.5 μM) or a solvent control (0.5% DMSO), the cells were cultured for 24 hours at 37° C. After recovering the culture supernatant, EPO concentration in the culture supernatant was quantified using a human EPO ELISA kit (StemCell Technologies). The compounds of Examples 1, 2, 5, 20, 43, 56, 100, 103, 109, 167, 173, 181, 193 and 198 were used for the test compounds. The EPO concentration of each Example was expressed as a multiple against the EPO concentration in the control.
For orientation: ELISA stands for enzyme-linked immunosorbent assay.

A word on the fold induction: it is the ratio of treated to control signal. Low readings indicate a weak induction, high ones a strong induction. As usually defined, the melting point is the temperature of the solid-liquid transition.

Molecules are shown by their SMILES.

As to `Cc1nc(CC2CCN(c3ccc(C(C)(C)C)cc3)CC2)nc(C(=O)NCC(=O)O)c1O` [Example 1], in data set [1], the fold induction at 12.5 µM stood at 98.
In turn, `Cc1nc(CC2CCN(c3ccccc3)CC2)nc(C(=O)NCC(=O)O)c1O` [Example 2, [({5-Hydroxy-6-methyl-2-[(1-phenylpiperidin-4-yl)methyl]pyrimidin-4-yl}carbonyl)amino]acetic acid] yielded a fold induction at 12.5 µM in data set [1] of 37.
On the same count and under the same terms, the value for `Cc1nc(CC2CCN(c3ccc(F)cc3)CC2)nc(C(=O)NCC(=O)O)c1O` [Example 5, {[(2-{[1-(4-Fluorophenyl)piperidin-4-yl]methyl}-5-hydroxy-6-methylpyrimidin-4-yl)carbonyl]amino}acetic acid] was 29.
Still for that read-out and setting: next, `Cc1nc(CC2CCN(c3ccc(C(F)(F)F)cc3)CC2)nc(C(=O)NCC(=O)O)c1O` [Example 20, ({[5-Hydroxy-6-methyl-2-({1-[4-(trifluoromethyl)phenyl]piperidin-4-yl}methyl)pyrimidin-4-yl]carbonyl}amino)acetic acid]: 127; `Cc1nc(CC2CCN(c3ccc(-c4ccccc4)cc3)CC2)nc(C(=O)NCC(=O)O)c1O` [Example 43, {[(2-{[1-(Biphenyl-4-yl)piperidin-4-yl]methyl}-5-hydroxy-6-methylpyrimidin-4-yl)carbonyl]amino}acetic acid]: 262.
The compound `Cc1nc(CC2CCN(c3ccc(Cc4ccccc4)cc3)CC2)nc(C(=O)NCC(=O)O)c1O` [Example 56, {[(2-{[1-(4-Benzylphenyl)piperidin-4-yl]methyl}-5-hydroxy-6-methylpyrimidin-4-yl)carbonyl]amino}acetic acid] yielded a fold induction at 12.5 µM in data set [1] of 158.
The compound `Cc1nc(CC2CCN(c3ccc(-c4ccccn4)cc3)CC2)nc(C(=O)NCC(=O)O)c1O` [Example 100, ({[5-Hydroxy-6-methyl-2-({1-[4-(pyridin-2-yl)phenyl]piperidin-4-yl}methyl)pyrimidin-4-yl]carbonyl}amino)acetic acid] displayed a fold induction at 12.5 µM in data set [1] of 104.
Still for that read-out and setting: next, `Cc1nc(CC2CCN(c3ccc(-c4cccnc4)cc3)CC2)nc(C(=O)NCC(=O)O)c1O` [Example 103, ({[5-Hydroxy-6-methyl-2-({1-[4-(pyridin-3-yl)phenyl]piperidin-4-yl}methyl)pyrimidin-4-yl]carbonyl}amino)acetic acid]: 100.
On the same count and under the same terms, next, `Cc1nc(CC2CCN(c3ccc(-c4nccs4)cc3)CC2)nc(C(=O)NCC(=O)O)c1O` [Example 109, ({[5-Hydroxy-6-methyl-2-({1-[4-(1,3-thiazol-2-yl)phenyl]piperidin-4-yl}methyl)pyrimidin-4-yl]carbonyl}amino)acetic acid]: 142; `Cc1nc(CC2=CCN(c3ccc(C(C)(C)C)cc3)CC2)nc(C(=O)NCC(=O)O)c1O` [Example 167, {[(2-{[1-(4-tert-Butylphenyl)-1,2,3,6-tetrahydropyridin-4-yl]methyl}-5-hydroxy-6-methylpyrimidin-4-yl)carbonyl]amino}acetic acid]: 225.
Still for that read-out and setting: the value for `Cc1nc(Cc2ccc(-c3ccc(C(C)(C)C)cc3)nc2)nc(C(=O)NCC(=O)O)c1O` [Example 173, {[(2-{[6-(4-tert-Butylphenyl)pyridin-3-yl]methyl}-5-hydroxy-6-methylpyrimidin-4-yl)-carbonyl]amino}acetic acid] was 184; that for `Cc1nc(Cc2cnc(-c3ccc(C(C)(C)C)cc3)nc2)nc(C(=O)NCC(=O)O)c1O` [Example 181, {[(2-{[2-(4-tert-Butylphenyl)pyrimidin-5-yl]methyl}-5-hydroxy-6-methylpyrimidin-4-yl)-carbonyl]amino}acetic acid] was 155.
`Cc1nc(CC2(C)CCN(c3ccc(F)cc3)CC2)nc(C(=O)NCC(=O)O)c1O` [Example 186, {[(2-{[1-(4-Fluorophenyl)-4-methylpiperidin-4-yl]methyl}-5-hydroxy-6-methylpyrimidin-4-yl)carbonyl]amino}acetic acid] showed a melting point of 140 to 141 °C.
As to `CSc1nc(CC2CCN(c3ccc(C(C)(C)C)cc3)CC2)nc(C(=O)NCC(=O)O)c1O` [Example 193, ({[2-{[1-(4-tert-Butylphenyl)piperidin-4-yl]methyl}-5-hydroxy-6-(methylsulfanyl)pyrimidin-4-yl]carbonyl}amino)acetic acid], in data set [1], the fold induction at 12.5 µM stood at 147.
Consider `Cc1nc(C[C@H]2OC[C@H](c3ccc(F)cc3)CO2)nc(C(=O)NCC(=O)O)c1O` [Example 196, {[(2-{[trans-5-(4-Fluorophenyl)-1,3-dioxan-2-yl]methyl}-5-hydroxy-6-methylpyrimidin-4-yl)carbonyl]amino}acetic acid], for which the melting point was 209 °C.
The compound `Cc1nc(C[C@H]2OC[C@H](c3ccc(-c4ccccc4)cc3)CO2)nc(C(=O)NCC(=O)O)c1O` [Example 198, {[(2-{[trans-5-(Biphenyl-4-yl)-1,3-dioxan-2-yl]methyl}-5-hydroxy-6-methylpyrimidin-4-yl)-carbonyl]amino}acetic acid] gave a fold induction at 12.5 µM in data set [1] of 108.
